Data from US8802597B2, “Herbicidal pyrimidines” (E I du Pont de Nemours and Company, priority 2003, dated 2014).
Read-outs that look alike come from different tables or passages of the source.

Columns and labels:
Format in all cases: in vivo
[1] = system: velvetleaf (Abutilon theophrasti); experiment: Test B pre/postemergence; conditions: Abutilon theophrasti; for pest or weed control at 62 g/ha: 62 g ai/ha; for pest or weed control at 125 g/ha: 125 g ai/ha
Procedure, shortened: (§1)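 Visual rating, 0 (no effect) to 100 (complete control) versus controls, taken 13–15 days after treatment in greenhouse. Compounds formulated in non-phytotoxic solvent plus surfactant; pre: sprayed after seeding; post: plants at 1- to 4-leaf stage, 2–18 cm.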

[2] = system: Surinam grass (Brachiaria decumbens); experiment: Test B pre/postemergence; conditions: Urochloa decumbens; for pest or weed control at 125 g/ha: 125 g ai/ha; for pest or weed control at 62 g/ha: 62 g ai/ha
Procedure, shortened: as §1

corn (Zea mays) = experiment: Test B pre/postemergence; conditions: Zea mays
Procedure, shortened: as §1

[3] = system: giant foxtail (Setaria faberii); experiment: Test B pre/postemergence; conditions: Setaria faberi; for pest or weed control at 125 g/ha: 125 g ai/ha; for pest or weed control at 62 g/ha: 62 g ai/ha
Procedure, shortened: as §1

[4] = system: wheat (Triticum aestivum); experiment: Test B pre/postemergence; conditions: Triticum aestivum, scale 0 to 100 (0 no effect, 100 complete control); for plant injury at 62 g/ha: 62 g ai/ha; for plant injury at 125 g/ha: 125 g ai/ha
Procedure, shortened: as §1

[5] = system: cocklebur (Xanthium strumarium); experiment: Test B pre/postemergence; conditions: Xanthium strumarium; for pest or weed control at 62 g/ha: 62 g ai/ha; for pest or weed control at 125 g/ha: 125 g ai/ha
Procedure, shortened: as §1

[6] = system: lambsquarters (Chenopodium album); experiment: Test B pre/postemergence; conditions: Chenopodium album, post-emergence, Postemergence, scale 0 to 100 (0 no effect, 100 complete control), read-out: Lambsquarters plant response rating
Procedure, shortened: as §1

[7] = system: crabgrass (Digitaria sanguinalis); experiment: Test B pre/postemergence; conditions: Digitaria sanguinalis; for pest or weed control at 62 g/ha: 62 g ai/ha; for pest or weed control at 125 g/ha: 125 g ai/ha
Procedure, shortened: as §1

[8] = system: barnyardgrass (Echinochloa crus-galli); experiment: Test B pre/postemergence; conditions: Echinochloa crus-galli, post-emergence, Postemergence, scale 0 to 100 (0 no effect, 100 complete control), read-out: Barnyardgrass plant response rating
Procedure, shortened: as §1

[9] = system: pigweed (Amaranthus retroflexus); experiment: Test B pre/postemergence; conditions: Amaranthus retroflexus, post-emergence, Postemergence, scale 0 to 100 (0 no effect, 100 complete control), read-out: Pigweed plant response rating
Procedure, shortened: as §1

[10] = system: morningglory (Ipomoea coccinea); experiment: Test B pre/postemergence; conditions: Ipomoea; for pest or weed control at 62 g/ha: 62 g ai/ha; for pest or weed control at 125 g/ha: 125 g ai/ha
Procedure, shortened: as §1

[11] = system: blackgrass (Alopecurus myosuroides); experiment: Test B postemergence; conditions: Alopecurus myosuroides, post-emergence, 62 g ai/ha, scale 0 to 100 (0 no effect, 100 complete control), read-out: Blackgrass plant response rating
Procedure, shortened: as §1

wild oat (Avena fatua) = experiment: Test B postemergence; conditions: Avena fatua, post-emergence, scale 0 to 100 (0 no effect, 100 complete control), read-out: Oat, Wild plant response rating
Procedure, shortened: as §1

[12] = system: duck salad (Heteranthera limosa); experiment: Test B flooded paddy test; conditions: Heteranthera limosa, Flood, scale 0 to 100, read-out: Plant response rating, Ducksalad
Procedure, shortened: (§2)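 Plants were grown to the 2-leaf stage before treatment, then kept in a greenhouse for 13 to 15 days. Injury was rated visually against untreated controls on a 0 to 100 scale, where 0 is no effect and 100 is complete control.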

[13] = system: umbrella sedge (Cyperus difformis); experiment: Test B flooded paddy test; conditions: Cyperus difformis, Flood, scale 0 to 100, read-out: Plant response rating, Sedge, Umbrella
Procedure, shortened: as §2

[14] = system: barnyardgrass (Echinochloa crus-galli); experiment: Test B flooded paddy test; conditions: Echinochloa crus-galli, Flood, scale 0 to 100, read-out: Plant response rating, Barnyardgrass
Procedure, shortened: as §2

rice (Oryza sativa) = experiment: Test B flooded paddy test; conditions: Oryza sativa, Flood, scale 0 to 100, read-out: Plant response rating, Rice
Procedure, shortened: as §2

[15] = post-emergence, Postemergence, scale 0 to 100 (0 no effect, 100 complete control), read-out: Velvetleaf plant response rating
[16] = post-emergence, Postemergence, scale 0 to 100 (0 no effect, 100 complete control), read-out: Surinam Grass plant response rating
[17] = post-emergence, Postemergence, scale 0 to 100 (0 no effect, 100 complete control), read-out: Foxtail, Giant plant response rating
[18] = post-emergence, Postemergence, read-out: Wheat plant response rating
[19] = pre-emergence, Preemergence, read-out: Plant response rating, Wheat
[20] = post-emergence, Postemergence, scale 0 to 100 (0 no effect, 100 complete control), read-out: Cocklebur plant response rating
[21] = post-emergence, Postemergence, scale 0 to 100 (0 no effect, 100 complete control), read-out: Crabgrass plant response rating
[22] = post-emergence, Postemergence, scale 0 to 100 (0 no effect, 100 complete control), read-out: Morningglory plant response rating

Structure (SMILES): Nc1nc(-c2ccc(Br)cc2)nc(C(=O)O)c1Cl [Compound 95, 6-amino-2-(4-bromophenyl)-5-chloro-4-pyrimidinecarboxylic acid]
- pest or weed control at 62 g/ha [1, 15]: 100%
- pest or weed control at 125 g/ha [1, 15]: 100%
- pest or weed control at 62 g/ha ([1]; pre-emergence, Preemergence, scale 0 to 100, 0 no effect, 100 complete control, read-out: Plant response rating, Velvetleaf): 80%
- pest or weed control at 125 g/ha ([1]; pre-emergence, Preemergence, scale 0 to 100 (0 no effect, 100 complete control), read-out: Plant response rating, Velvetleaf): 100%
- pest or weed control at 125 g/ha [2, 16]: 90%
- pest or weed control at 62 g/ha [2, 16]: 80%
- pest or weed control at 125 g/ha ([2]; pre-emergence, Preemergence, scale 0 to 100 (0 no effect, 100 complete control), read-out: Plant response rating, Surinam Grass): 100%
- pest or weed control at 62 g/ha ([2]; pre-emergence, Preemergence, scale 0 to 100, 0 no effect, 100 complete control, read-out: Plant response rating, Surinam Grass): 50%
- plant injury at 62 g/ha (corn (Zea mays); post-emergence, Postemergence, 62 g ai/ha, scale 0 to 100 (0 no effect, 100 complete control), read-out: Corn plant response rating): 80%
- plant injury at 125 g/ha (corn (Zea mays); post-emergence, Postemergence, 125 g ai/ha, scale 0 to 100 (0 no effect, 100 complete control), read-out: Corn plant response rating): 90%
- Corn plant response rating (crop injury, 0 = no effect, 100 = complete kill) at 62 g/ha (corn (Zea mays); pre-emergence, Preemergence, 62 g ai/ha, scale 0 to 100, 0 no effect, 100 complete control): 40%
- Corn plant response rating (crop injury, 0 = no effect, 100 = complete kill) at 125 g/ha (corn (Zea mays); pre-emergence, Preemergence, 125 g ai/ha, scale 0 to 100 (0 no effect, 100 complete control)): 80%
- pest or weed control at 125 g/ha [3, 17]: 80%
- pest or weed control at 62 g/ha [3, 17]: 80%
- pest or weed control at 125 g/ha ([3]; pre-emergence, Preemergence, scale 0 to 100 (0 no effect, 100 complete control), read-out: Plant response rating, Foxtail, Giant): 90%
- pest or weed control at 62 g/ha ([3]; pre-emergence, Preemergence, scale 0 to 100, 0 no effect, 100 complete control, read-out: Plant response rating, Foxtail, Giant): 50%
- plant injury at 62 g/ha [4, 18]: 40%
- plant injury at 125 g/ha [4, 18]: 50%
- plant injury at 62 g/ha [4, 19]: 70%
- plant injury at 125 g/ha [4, 19]: 80%
- pest or weed control at 62 g/ha [5, 20]: 90%
- pest or weed control at 125 g/ha [5, 20]: 90%
- pest or weed control at 62 g/ha ([5]; pre-emergence, Preemergence, scale 0 to 100, 0 no effect, 100 complete control, read-out: Plant response rating, Cocklebur): 90%
- pest or weed control at 125 g/ha ([5]; pre-emergence, Preemergence, scale 0 to 100 (0 no effect, 100 complete control), read-out: Plant response rating, Cocklebur): 100%
- pest or weed control at 62 g/ha ([6]; 62 g ai/ha): 100%
- pest or weed control at 125 g/ha ([6]; 125 g ai/ha): 100%
- pest or weed control at 62 g/ha [7, 21]: 80%
- pest or weed control at 125 g/ha [7, 21]: 80%
- pest or weed control at 62 g/ha ([7]; pre-emergence, Preemergence, scale 0 to 100, 0 no effect, 100 complete control, read-out: Plant response rating, Crabgrass): 80%
- pest or weed control at 125 g/ha ([7]; pre-emergence, Preemergence, scale 0 to 100 (0 no effect, 100 complete control), read-out: Plant response rating, Crabgrass): 100%
- pest or weed control at 62 g/ha ([8]; 62 g ai/ha): 90%
- pest or weed control at 125 g/ha ([8]; 125 g ai/ha): 90%
- pest or weed control at 62 g/ha ([9]; 62 g ai/ha): 100%
- pest or weed control at 125 g/ha ([9]; 125 g ai/ha): 100%
- pest or weed control at 62 g/ha [10, 22]: 90%
- pest or weed control at 125 g/ha [10, 22]: 100%
- pest or weed control at 62 g/ha ([10]; pre-emergence, Preemergence, scale 0 to 100, 0 no effect, 100 complete control, read-out: Plant response rating, Morningglory): 30%
- pest or weed control at 125 g/ha ([10]; pre-emergence, Preemergence, scale 0 to 100 (0 no effect, 100 complete control), read-out: Plant response rating, Morningglory): 60%
- pest or weed control at 62 g/ha [11]: 60%
- pest or weed control at 62 g/ha (wild oat (Avena fatua); 62 g ai/ha): 30%
- pest or weed control at 125 g/ha (wild oat (Avena fatua); 125 g ai/ha): 60%
- pest or weed control at 125 g/ha ([12]; 125 g ai/ha): 90%
- pest or weed control at 500 g/ha ([12]; 500 g ai/ha): 100%
- pest or weed control at 125 g/ha ([13]; 125 g ai/ha): 90%
- pest or weed control at 500 g/ha ([13]; 500 g ai/ha): 90%
- pest or weed control at 125 g/ha ([14]; 125 g ai/ha): 0%
- pest or weed control at 500 g/ha ([14]; 500 g ai/ha): 30%
- plant injury at 125 g/ha (rice (Oryza sativa); 125 g ai/ha): 0%
- plant injury at 500 g/ha (rice (Oryza sativa); 500 g ai/ha): 40%
